Where only a bound is given, the exact number is not on record here.

These results are taken from patent US8603737B2, “Methods for identifying HCV protease inhibitors” (priority 2008, dated 2013).

Assay [1] concerns the target T1, A156T mutant of the HCV NS3/4A 1b protease enzyme (Hepatitis C virus genotype 1b, UniProt P26663, A1182T).
T1 construct: 10× stocks of NS3/4A protease enzyme from Bioenza; purchased Bioenza (Mountain View, Calif.)
The experiment in a line: HCV protease FRET assay, A156T mutant. The note with it: read-out: Inhibition, HCV A156T (IC50). The class given is biochemical. As for the experimental part:
(§1) HCV Protease FRET Assay for Mutated NS3/4A 1b Enzymes
(§2) The protocol is a modified FRET-based assay (v—02) from In Vitro Resistance Studies of HCV Serine Protease Inhibitors, 2004, JBC, vol. 279, No. 17, pp 17508-17514. Inherent potency of compounds was assessed against A156S, A156T, D168A, and D168V mutants of the HCV NS3/4A 1b protease enzyme as follows:
(§3) Assay buffer: 2% CHAPS, 50 mM Tris pH 7.5, 50% glycerol, 2 μM M-2235 (Bachem) substrate. In a 50 μl reaction, add 49 μl assay buffer, 1 μl (1 U) HCV serine protease (Bioenza). Incubate 20 minutes at room temperature. The plate was read at either 350/460 nm (excitation/emission) on a fluorescent micro-plate reader or monitored at one-minute intervals to achieve the kinetic curve.
10× stocks of NS3/4A protease enzyme from Bioenza (Mountain View, Calif.) and 1.13×5-FAM/QXL™520 FRET peptide substrate from Anaspec (San Jose, Calif.) were prepared in 50 mM HEPES, pH 7.8, 100 mM NaCl, 5 mM DTT and 20% glycerol. […] Protease reactions were started with the addition of 45 μL of the FRET substrate and monitored for 120 minutes at λex487/λem514 through Quad^4 monochromoters in a Synergy^4 plate reader from BioTek (Winooski, Vt.). […]

For assay [2], the target named is T2, D168V mutant of the HCV NS3/4A 1b protease enzyme (Hepatitis C virus genotype 1b, UniProt P26663, D1194V).
T2 construct: 10× stocks of NS3/4A protease enzyme from Bioenza; purchased Bioenza (Mountain View, Calif.)
The experiment in a line: HCV protease FRET assay, D168V mutant. The format is biochemical. The conditions noted are these: read-out: Inhibition, HCV D168V (IC50). As for the experimental part:
as §1, §2, §3
10× stocks of NS3/4A protease enzyme from Bioenza (Mountain View, Calif.) and 1.13×5-FAM/QXL™520 FRET peptide substrate from Anaspec (San Jose, Calif.) were prepared in 50 mM HEPES, pH 7.8, 100 mM NaCl, 5 mM DTT and 20% glycerol. 5 μL of each enzyme were pre-incubated in a Corning (#3573) 384-well, black, non-treated microtiter plate (Corning, N.Y.) for 30 min at 25° C. with a 0.5 μL volume of 50% DMSO and serially diluted compounds prepared in 50% DMSO. Protease reactions were started with the addition of 45 μL of the FRET substrate and monitored for 120 minutes at λex487/λem514 through Quad^4 monochromoters in a Synergy^4 plate reader from BioTek (Winooski, Vt.). […] Initial velocity (0 minutes to 30+ minutes) from each reaction was determined from the slope of a plot of relative fluorescence units vs time (minutes) and then plotted against inhibitor concentration to estimate IC50 from log[Inhibitor] vs Response, Variable Slope model in GraphPad Prism from GraphPad Software (San Diego, Calif.). […]
The following protocol was used to generate “apparent” IC50 (IC50—APP)) values as depicted in Table 3, below. […] Protease reactions were immediately started after enzyme addition with the addition of 45 μL of the FRET substrate and monitored for 60-90 minutes at λex485/λem520 in a Synergy^4 plate reader from BioTek (Winooski, Vt.). […]

The subject of assay [3] is HCV RNA replicon in cell line ET (luc-ubi-neo/ET), human Huh7 hepatoma. Description: Luciferase reporter replicon assay (Example 5, Method C). The format is cell-based. The note with it: Hepatitis C virus, Huh-7, 72 hr. As for the experimental part:
Method C: Luciferase Reporter Assay Protocol
The compounds were assayed to evaluate the antiviral activity and cytotoxicity of compounds using replicon-derived luciferase activity. This assay used the cell line ET (luc-ubi-neo/ET), which is a human Huh7 hepatoma cell line that contains an HCV RNA replicon with a stable luciferase (Luc) reporter and three cell culture-adaptive mutations. The ET cell line was grown in a 5% CO2 incubator at 37° C. in Dulbecco's modified essential media (DMEM), supplemented with 2 mM L-glutamine (“1%”), nonessential amino acids, 100 U of penicillin/mL, 100 μg of streptomycin/mL (“1%”), 10% fetal bovine serum and 400 μg/mL G418 (Geneticin; Invitrogen).
All cell culture reagents were obtained from Invitrogen (Carlsbad). Cells were trypsinized (1% trypsin:EDTA) and plated out at 5×10^3 cells/well in white 96-well assay plates (Costar) dedicated to cell number (cytotoxicity) or antiviral activity assessments. Test compounds were added at six 3-fold serial dilutions each and the assay was run in DMEM, 5% FBS, 1% pen-strep, 1% glutamine, 1% non essential amino acid. Human interferon alpha-2b (PBL Biolabs, New Brunswick, N.J.) was included in each run as a positive control compound. Cells were processed 72 hr post test compound addition when the cells were still subconfluent. Antiviral activity was measured by analyzing replicon-derived luciferase activity using the Steady-Glo Luciferase Assay System (Promega, Madison, Wis.) according to manufacturer's instruction. The number of cells in each well was determined by Cell Titer Blue Assay (Promega). Compound profile was derived by calculating applicable EC50 (effective concentration inhibiting virus replication by 50%), EC90 (effective concentration inhibiting virus replication by 90%), IC50 (concentration decreasing cell viability by 50%) and SI50 (selective index: […]) values.

The target in assay [4] is T3, R155K mutant of the HCV NS3/4A 1b protease enzyme (Hepatitis C virus genotype 1b, UniProt P26663, R1181K).
T3 construct: 10× stocks of NS3/4A protease enzyme from Bioenza; purchased Bioenza (Mountain View, Calif.)
The experiment in a line: HCV protease FRET assay, R155K mutant. The note with it: read-out: Inhibition, HCV R155K (IC50). The format is biochemical. From the text: HCV Protease FRET Assay for WT and Mutated NS3/4A 1b Enzymes (IC50 —APP)
The following protocol was used to generate “apparent” IC50 (IC50—APP)) values as depicted in Table 3, below. Without wishing to be bound by any particular theory, it is believed that IC50—APP, contrasted with IC50 values, may provide a more useful indication of time-dependent inhibition, and are thus more representative of binding affinity. The protocol is a modified FRET-based assay (v—03) developed to evaluate compound potency, rank-order and resistance profiles against wild type and C159S, A156S, A156T, D168A, D168V, R155K mutants of the HCV NS3/4A 1b protease enzyme as follows: 10× stocks of NS3/4A protease enzyme from Bioenza (Mountain View, Calif.) and 1.13×5-FAM/QXL™520 FRET peptide substrate from Anaspec (San Jose, Calif.) were prepared in 50 mM Tris-HCl, pH 7.5, 5 mM DTT, 2% CHAPS and 20% glycerol. 5 μL of each enzyme were added to Corning (#3575) 384-well, black, microtiter plates (Corning, N.Y.) after spotting a 0.5 μL volume of 50% DMSO and serially diluted compounds prepared in 50% DMSO. Protease reactions were immediately started after enzyme addition with the addition of 45 μL of the FRET substrate and monitored for 60-90 minutes at λex485/λem520 in a Synergy^4 plate reader from BioTek (Winooski, Vt.). […]

`C=C[C@@H]1C[C@]1(NC(=O)[C@@H]1C[C@@H](Oc2cc(-c3ccccc3)nc3cc(OC)ccc23)CN1C(=O)C(NC(=O)OC(C)(C)C)[C@@H](C)OC(=O)/C=C/C)C(=O)NS(=O)(=O)C1CC1` (stereo partly shown) [Compound 3]: the IC50 fell in the range of 100 to 1000 nM in assay [1] and 1000 to 10000 nM in assay [2].
Take `C=CC(=O)N(C)C[C@H](NC(=O)OC(C)(C)C)C(=O)N1C[C@H](OC(=O)N2Cc3cccc(F)c3C2)C[C@H]1C(=O)N[C@]1(C(=O)NS(=O)(=O)C2CC2)C[C@H]1C=C` [Compound 4]: the IC90 in assay [3] (IC90, read-out: Inhibition, Replicon, IC90 value, Method C) lay within 10 to 100 nM. In addition, the IC50 is < 10 nM in assay [3] (read-out: Inhibition, Replicon (IC50), Method C); 10 to 100 nM in assay [4]; < 10 nM in assay [1]; 10 to 100 nM in assay [2].
For `CC(C)(C)OC(=O)NC1CN(C(=O)CCl)CCC/C=C\[C@@H]2C[C@@]2(C(=O)NS(=O)(=O)C2CC2)NC(=O)[C@@H]2C[C@@H](OC(=O)N3Cc4cccc(F)c4C3)CN2C1=O` (stereo partly shown) [Compound 8], the EC90 in assay [3] (EC90, read-out: Inhibition, Replicon, EC90 value) was 100 to 1000 nM. Moreover, the EC50 in assay [3] (read-out: Inhibition, Replicon, EC50 value) lay within 10 to 100 nM. In assay [4], the half-maximal inhibitory concentration (IC50) lay in the range of 10 to 100 nM.

The IC50 is the concentration at which inhibition is half-maximal. As a reminder, the IC90 is the concentration at which the effect reaches the 90% level. What is called EC90 is the concentration at which the effect reaches the 90% level. The term EC50 denotes the concentration at which the effect is half-maximal.
